# Laboratory results taken from patent publication US9790210B2, “N-(monocyclic aryl),N'-pyrazolyl-urea, thiourea, guanidine and cyanoguanidine compounds as TrkA kinase inhibitors” (Array BioPharma Inc., priority 2012, dated 2017).
# Assays:
# Experiment in all cases: KinaseProfiler
# Type in all cases: biochemical
# Conditions in all cases: 10 μM, ATP near Km
# [1] = target: T1, SIK (Homo sapiens, UniProt P57059)
# T1 construct: purchased Millipore, Inc. (KinaseProfiler service)
# How it was run: (§1)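 Duplicate determinations at 10 μM test compound; ATP approx. Km for each target. POC reported as replicate mean.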
# [2] = target: T2, TAO1 (Homo sapiens, UniProt Q7L7X3)
# T2 construct: purchased Millipore, Inc. (KinaseProfiler service)
# How it was run: as §1
# [3] = target: T3, IR (Homo sapiens, UniProt P06213)
# T3 construct: purchased Millipore, Inc. (KinaseProfiler service)
# How it was run: as §1
# [4] = target: T4, JNKlalpha1 (Homo sapiens, UniProt P45983)
# T4 construct: purchased Millipore, Inc. (KinaseProfiler service)
# How it was run: as §1
# [5] = target: T5, p38alpha (Homo sapiens, UniProt Q16539)
# T5 construct: purchased Millipore, Inc. (KinaseProfiler service)
# T5 sequence (Q16539 whole entry): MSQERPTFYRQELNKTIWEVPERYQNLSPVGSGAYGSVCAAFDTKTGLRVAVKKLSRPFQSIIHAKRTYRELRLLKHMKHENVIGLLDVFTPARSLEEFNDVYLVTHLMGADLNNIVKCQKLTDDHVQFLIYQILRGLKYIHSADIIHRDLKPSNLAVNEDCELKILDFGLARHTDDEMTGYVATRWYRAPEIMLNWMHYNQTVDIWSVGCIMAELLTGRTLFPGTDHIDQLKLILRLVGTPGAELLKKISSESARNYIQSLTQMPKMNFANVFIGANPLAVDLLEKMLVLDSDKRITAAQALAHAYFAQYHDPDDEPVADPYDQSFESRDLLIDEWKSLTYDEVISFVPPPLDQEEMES
# How it was run: as §1
# [6] = target: T6, PKCgamma (Homo sapiens, UniProt P05129)
# T6 construct: purchased Millipore, Inc. (KinaseProfiler service)
# How it was run: as §1
# [7] = target: T7, Plk1 (Homo sapiens, UniProt P53350)
# T7 construct: purchased Millipore, Inc. (KinaseProfiler service)
# How it was run: as §1
# [8] = target: T8, SGK1 (Homo sapiens, UniProt O00141)
# T8 construct: purchased Millipore, Inc. (KinaseProfiler service)
# How it was run: as §1
# [9] = target: T9, DRAK1 (Homo sapiens, UniProt Q9UEE5)
# T9 construct: purchased Millipore, Inc. (KinaseProfiler service)
# How it was run: as §1
# [10] = target: T10, Fer (Homo sapiens, UniProt P16591)
# T10 construct: purchased Millipore, Inc. (KinaseProfiler service)
# How it was run: as §1
# [11] = target: T11, DMPK (Homo sapiens, UniProt Q09013)
# T11 construct: purchased Millipore, Inc. (KinaseProfiler service)
# How it was run: as §1
# [12] = target: T12, FAK2 (Homo sapiens, UniProt Q14289)
# T12 construct: purchased Millipore, Inc. (KinaseProfiler service)
# How it was run: as §1
# [13] = target: T13, Met (Homo sapiens, UniProt P08581)
# T13 construct: purchased Millipore, Inc. (KinaseProfiler service)
# How it was run: as §1
# [14] = target: T14, PRKG1alpha (Homo sapiens, UniProt Q13976)
# T14 construct: purchased Millipore, Inc. (KinaseProfiler service)
# T14 sequence (Q13976 whole entry): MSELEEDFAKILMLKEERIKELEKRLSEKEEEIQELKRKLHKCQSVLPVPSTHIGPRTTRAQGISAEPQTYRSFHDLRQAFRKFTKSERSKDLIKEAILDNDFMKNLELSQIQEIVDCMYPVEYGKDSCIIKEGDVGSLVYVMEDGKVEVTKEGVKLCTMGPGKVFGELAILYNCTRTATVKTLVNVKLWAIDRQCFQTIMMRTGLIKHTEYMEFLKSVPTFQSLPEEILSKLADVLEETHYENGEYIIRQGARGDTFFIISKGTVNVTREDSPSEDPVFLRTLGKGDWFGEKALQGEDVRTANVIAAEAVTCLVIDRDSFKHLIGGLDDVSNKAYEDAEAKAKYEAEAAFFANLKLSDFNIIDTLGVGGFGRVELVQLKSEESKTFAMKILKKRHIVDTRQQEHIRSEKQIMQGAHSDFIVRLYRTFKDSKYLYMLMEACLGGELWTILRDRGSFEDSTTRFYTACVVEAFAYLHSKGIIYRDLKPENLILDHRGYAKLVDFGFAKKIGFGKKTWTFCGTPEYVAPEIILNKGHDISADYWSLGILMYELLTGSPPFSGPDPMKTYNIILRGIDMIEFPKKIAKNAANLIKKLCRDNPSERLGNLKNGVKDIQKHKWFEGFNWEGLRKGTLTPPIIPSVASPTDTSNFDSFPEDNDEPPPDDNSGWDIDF
# How it was run: as §1
# [15] = target: T15, TAK1 (Homo sapiens, UniProt O43318)
# T15 construct: purchased Millipore, Inc. (KinaseProfiler service)
# T15 sequence (O43318 1-303 limits assumed): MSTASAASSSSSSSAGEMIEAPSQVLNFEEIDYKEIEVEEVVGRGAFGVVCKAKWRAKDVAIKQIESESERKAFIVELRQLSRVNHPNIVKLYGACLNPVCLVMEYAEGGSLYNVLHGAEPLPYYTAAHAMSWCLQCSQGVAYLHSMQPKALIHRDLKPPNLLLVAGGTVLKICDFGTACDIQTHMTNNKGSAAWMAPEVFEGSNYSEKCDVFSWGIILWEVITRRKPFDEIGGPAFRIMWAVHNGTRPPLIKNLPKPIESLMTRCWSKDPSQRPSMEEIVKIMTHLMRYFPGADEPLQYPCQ
# T15 sequence (Q15750 437-504 partner limits assumed): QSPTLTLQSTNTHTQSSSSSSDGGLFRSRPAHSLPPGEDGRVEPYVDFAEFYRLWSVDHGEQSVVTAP
# How it was run: as §1
# [16] = target: T16, MRCKbeta (Homo sapiens, UniProt Q9Y5S2)
# T16 construct: purchased Millipore, Inc. (KinaseProfiler service)
# How it was run: as §1
# [17] = target: T17, TAO2 (Homo sapiens, UniProt Q9UL54)
# T17 construct: purchased Millipore, Inc. (KinaseProfiler service)
# How it was run: as §1
# [18] = target: T18, CDK1/cyclinB (Homo sapiens, UniProt P06493)
# T18 construct: purchased Millipore (KinaseProfiler service)
# How it was run: as §1
# [19] = target: T19, MST2 (Homo sapiens, UniProt Q13188)
# T19 construct: purchased Millipore, Inc. (KinaseProfiler service)
# How it was run: as §1
# [20] = target: T20, Rsk4 (Homo sapiens, UniProt Q9UK32)
# T20 construct: purchased Millipore, Inc. (KinaseProfiler service)
# How it was run: as §1
# [21] = target: T21, CSK (Homo sapiens, UniProt P41240)
# T21 construct: purchased Millipore, Inc. (KinaseProfiler service)
# How it was run: as §1
# [22] = target: T22, CK1gamma1 (Homo sapiens, UniProt Q9HCP0)
# T22 construct: purchased Millipore, Inc. (KinaseProfiler service)
# How it was run: as §1
# [23] = target: T23, WNK3 (Homo sapiens, UniProt Q9BYP7)
# T23 construct: purchased Millipore, Inc. (KinaseProfiler service)
# How it was run: as §1
# [24] = target: T24, NEK11 (Homo sapiens, UniProt Q8NG66)
# T24 construct: purchased Millipore, Inc. (KinaseProfiler service)
# How it was run: as §1
# [25] = target: T25, MKNK2 (Homo sapiens, UniProt Q9HBH9)
# T25 construct: purchased Millipore, Inc. (KinaseProfiler service)
# How it was run: as §1
# [26] = target: T26, PASK (Homo sapiens, UniProt Q96RG2)
# T26 construct: purchased Millipore, Inc. (KinaseProfiler service)
# T26 sequence (Q96RG2 whole entry): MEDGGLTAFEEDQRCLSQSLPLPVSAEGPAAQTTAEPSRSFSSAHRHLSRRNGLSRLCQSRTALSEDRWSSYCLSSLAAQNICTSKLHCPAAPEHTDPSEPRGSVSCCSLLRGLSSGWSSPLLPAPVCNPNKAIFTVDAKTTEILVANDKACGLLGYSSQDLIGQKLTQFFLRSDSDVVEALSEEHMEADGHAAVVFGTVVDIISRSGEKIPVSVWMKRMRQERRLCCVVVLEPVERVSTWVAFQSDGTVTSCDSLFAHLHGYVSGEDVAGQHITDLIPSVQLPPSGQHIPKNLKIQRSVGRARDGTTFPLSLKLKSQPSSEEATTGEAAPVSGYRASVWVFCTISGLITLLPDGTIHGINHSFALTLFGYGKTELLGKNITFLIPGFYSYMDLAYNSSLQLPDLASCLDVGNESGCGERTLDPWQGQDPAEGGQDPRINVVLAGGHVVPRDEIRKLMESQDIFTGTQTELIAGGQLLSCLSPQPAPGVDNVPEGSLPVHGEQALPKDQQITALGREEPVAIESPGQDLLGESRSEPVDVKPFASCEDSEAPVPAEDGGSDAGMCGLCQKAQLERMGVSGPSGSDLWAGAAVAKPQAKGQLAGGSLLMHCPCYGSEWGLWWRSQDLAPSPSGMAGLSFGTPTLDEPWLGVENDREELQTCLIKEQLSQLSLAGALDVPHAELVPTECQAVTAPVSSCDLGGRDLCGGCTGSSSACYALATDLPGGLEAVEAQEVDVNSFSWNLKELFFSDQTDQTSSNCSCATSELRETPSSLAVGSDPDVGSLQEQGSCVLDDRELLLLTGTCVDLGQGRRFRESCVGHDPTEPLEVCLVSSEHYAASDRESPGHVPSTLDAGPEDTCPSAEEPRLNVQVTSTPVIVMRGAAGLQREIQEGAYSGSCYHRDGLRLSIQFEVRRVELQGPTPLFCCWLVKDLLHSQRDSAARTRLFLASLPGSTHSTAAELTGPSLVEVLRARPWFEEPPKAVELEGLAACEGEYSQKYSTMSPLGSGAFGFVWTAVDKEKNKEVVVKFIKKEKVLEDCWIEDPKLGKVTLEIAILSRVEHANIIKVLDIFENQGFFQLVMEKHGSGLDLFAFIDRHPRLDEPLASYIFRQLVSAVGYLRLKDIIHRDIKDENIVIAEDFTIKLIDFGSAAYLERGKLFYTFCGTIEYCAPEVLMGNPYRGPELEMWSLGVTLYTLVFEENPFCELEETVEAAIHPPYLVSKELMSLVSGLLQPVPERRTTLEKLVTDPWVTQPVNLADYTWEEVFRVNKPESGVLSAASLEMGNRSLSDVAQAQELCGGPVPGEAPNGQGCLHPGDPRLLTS
# How it was run: as §1
# [27] = target: T27, PAK6 (Homo sapiens, UniProt Q9NQU5)
# T27 construct: purchased Millipore, Inc. (KinaseProfiler service)
# T27 sequence (Q9NQU5 whole entry): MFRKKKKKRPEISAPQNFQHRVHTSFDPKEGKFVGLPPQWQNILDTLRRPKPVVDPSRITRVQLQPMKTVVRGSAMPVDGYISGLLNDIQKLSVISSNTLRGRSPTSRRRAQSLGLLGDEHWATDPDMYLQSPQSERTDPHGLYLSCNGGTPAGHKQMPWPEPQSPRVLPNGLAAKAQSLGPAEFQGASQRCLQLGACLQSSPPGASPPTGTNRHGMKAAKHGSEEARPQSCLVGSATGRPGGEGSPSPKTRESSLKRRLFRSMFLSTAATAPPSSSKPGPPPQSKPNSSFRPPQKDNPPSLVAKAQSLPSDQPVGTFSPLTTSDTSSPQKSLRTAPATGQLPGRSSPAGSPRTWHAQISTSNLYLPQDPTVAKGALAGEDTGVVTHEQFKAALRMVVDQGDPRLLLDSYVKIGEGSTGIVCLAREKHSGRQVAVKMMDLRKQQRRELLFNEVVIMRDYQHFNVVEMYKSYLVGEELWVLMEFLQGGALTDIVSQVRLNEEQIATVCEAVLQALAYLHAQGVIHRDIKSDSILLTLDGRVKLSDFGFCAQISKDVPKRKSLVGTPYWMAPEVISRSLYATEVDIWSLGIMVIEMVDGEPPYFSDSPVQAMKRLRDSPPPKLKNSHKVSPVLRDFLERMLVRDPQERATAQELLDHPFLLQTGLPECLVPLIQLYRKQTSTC
# How it was run: as §1
# [28] = target: T28, JAK3 (Homo sapiens, UniProt P52333)
# T28 construct: purchased Millipore, Inc. (KinaseProfiler service)
# How it was run: as §1
# [29] = target: T29, FGFR3 (Homo sapiens, UniProt P22607)
# T29 construct: purchased Millipore, Inc. (KinaseProfiler service)
# How it was run: as §1
# [30] = target: T30, KDR (Homo sapiens, UniProt P35968)
# T30 construct: purchased Millipore, Inc. (KinaseProfiler service)
# How it was run: as §1
# [31] = target: T31, NEK6 (Homo sapiens, UniProt Q9HC98)
# T31 construct: purchased Millipore, Inc. (KinaseProfiler service)
# How it was run: as §1
# [32] = target: T32, PAK5 (Homo sapiens, UniProt Q9P286)
# T32 construct: purchased Millipore, Inc. (KinaseProfiler service)
# How it was run: as §1
# [33] = target: T33, SGK2 (Homo sapiens, UniProt Q9HBY8)
# T33 construct: purchased Millipore, Inc. (KinaseProfiler service)
# How it was run: as §1
# [34] = target: T34, SRPK1 (Homo sapiens, UniProt Q96SB4)
# T34 construct: purchased Millipore, Inc. (KinaseProfiler service)
# How it was run: as §1
# [35] = target: T35, CHK1 (Homo sapiens, UniProt O14757)
# T35 construct: purchased Millipore, Inc. (KinaseProfiler service)
# How it was run: as §1
# [36] = target: T36, IGF-1R Activated (Homo sapiens, UniProt P08069)
# T36 construct: purchased Millipore, Inc. (KinaseProfiler service)
# How it was run: as §1
# [37] = target: T37, mTOR/FKBP12 (Homo sapiens, UniProt P42345)
# T37 construct: purchased Millipore, Inc. (KinaseProfiler service)
# How it was run: as §1
# [38] = target: T38, JNK3 (Homo sapiens, UniProt P53779)
# T38 construct: purchased Millipore, Inc. (KinaseProfiler service)
# How it was run: as §1
# [39] = target: T39, PDK1 (Homo sapiens, UniProt O15530)
# T39 construct: purchased Millipore, Inc. (KinaseProfiler service)
# How it was run: as §1
# [40] = target: T40, Mer (Homo sapiens, UniProt Q12866)
# T40 construct: purchased Millipore, Inc. (KinaseProfiler service)
# T40 sequence (Q12866 21-999): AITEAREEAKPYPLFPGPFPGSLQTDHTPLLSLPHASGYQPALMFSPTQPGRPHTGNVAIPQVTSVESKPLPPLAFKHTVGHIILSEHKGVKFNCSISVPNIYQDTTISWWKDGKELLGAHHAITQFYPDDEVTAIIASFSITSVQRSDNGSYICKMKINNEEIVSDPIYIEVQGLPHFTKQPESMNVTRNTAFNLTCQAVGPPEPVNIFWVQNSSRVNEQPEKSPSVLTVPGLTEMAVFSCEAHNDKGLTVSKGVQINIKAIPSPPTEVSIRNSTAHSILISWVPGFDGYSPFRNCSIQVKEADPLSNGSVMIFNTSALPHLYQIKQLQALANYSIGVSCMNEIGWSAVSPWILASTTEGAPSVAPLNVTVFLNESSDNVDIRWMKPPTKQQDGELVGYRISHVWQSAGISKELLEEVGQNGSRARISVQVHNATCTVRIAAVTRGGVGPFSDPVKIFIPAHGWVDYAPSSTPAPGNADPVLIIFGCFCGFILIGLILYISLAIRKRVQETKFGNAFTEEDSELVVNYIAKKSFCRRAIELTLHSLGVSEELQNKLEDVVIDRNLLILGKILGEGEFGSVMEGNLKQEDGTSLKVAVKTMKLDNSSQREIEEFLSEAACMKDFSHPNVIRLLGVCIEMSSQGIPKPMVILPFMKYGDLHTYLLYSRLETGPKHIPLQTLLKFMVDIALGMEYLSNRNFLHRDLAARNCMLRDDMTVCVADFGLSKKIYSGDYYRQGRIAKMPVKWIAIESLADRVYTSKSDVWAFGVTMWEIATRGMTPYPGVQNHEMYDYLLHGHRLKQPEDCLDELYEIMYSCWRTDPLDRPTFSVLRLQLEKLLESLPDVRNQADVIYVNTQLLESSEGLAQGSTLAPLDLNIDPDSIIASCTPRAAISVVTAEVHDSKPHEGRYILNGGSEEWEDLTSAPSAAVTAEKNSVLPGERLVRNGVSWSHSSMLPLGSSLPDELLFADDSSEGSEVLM
# How it was run: as §1
# [41] = target: T41, ULK3 (Homo sapiens, UniProt Q6PHR2)
# T41 construct: purchased Millipore, Inc. (KinaseProfiler service)
# T41 sequence (Q6PHR2 whole entry): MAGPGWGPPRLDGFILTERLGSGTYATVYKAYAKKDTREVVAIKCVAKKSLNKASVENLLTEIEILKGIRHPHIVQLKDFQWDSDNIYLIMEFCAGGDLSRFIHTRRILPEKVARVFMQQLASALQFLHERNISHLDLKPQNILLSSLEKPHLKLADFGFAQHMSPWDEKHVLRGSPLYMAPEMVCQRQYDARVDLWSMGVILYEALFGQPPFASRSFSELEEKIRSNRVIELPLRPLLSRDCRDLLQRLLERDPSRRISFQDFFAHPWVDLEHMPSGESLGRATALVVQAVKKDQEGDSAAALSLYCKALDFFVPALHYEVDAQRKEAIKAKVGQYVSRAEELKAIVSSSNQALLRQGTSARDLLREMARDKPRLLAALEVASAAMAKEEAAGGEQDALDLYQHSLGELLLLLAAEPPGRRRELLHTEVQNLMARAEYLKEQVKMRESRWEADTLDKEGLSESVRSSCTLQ
# How it was run: as §1
structure (smiles),measurement,setting,value
"COCCCc1cc(Cl)c(Cl)cc1NC(=O)Nc1c(C)c(-c2cnn(C)c2)nn1-c1ccccc1 [Example 15, 1-(4,5-dichloro-2-(3-methoxypropyl)phenyl)-3-(1′,4-dimethyl-1-phenyl-1H,1′H-[3,4′-bipyrazol]-5-yl)urea]",Avg POC,[1],137 POC
same,Avg POC,[2],113 POC
same,Avg POC,[3],95 POC
same,Avg POC,[4],107 POC
same,Avg POC,[5],100.5 POC
same,Avg POC,[6],99.5 POC
same,Avg POC,[7],89.5 POC
same,Avg POC,[8],124 POC
same,Avg POC,[9],135.5 POC
same,Avg POC,[10],99 POC
same,Avg POC,[11],108.5 POC
same,Avg POC,[12],102.5 POC
same,Avg POC,[13],110.5 POC
same,Avg POC,[14],113.5 POC
same,Avg POC,[15],95 POC
same,Avg POC,[16],105.5 POC
same,Avg POC,[17],126 POC
same,Avg POC,[18],97 POC
same,Avg POC,[19],101.5 POC
same,Avg POC,[20],105 POC
same,Avg POC,[21],139 POC
same,Avg POC,[22],99.5 POC
same,Avg POC,[23],108.5 POC
same,Avg POC,[24],75 POC
same,Avg POC,[25],106 POC
same,Avg POC,[26],188 POC
same,Avg POC,[27],148 POC
same,Avg POC,[28],111 POC
same,Avg POC,[29],106.5 POC
same,Avg POC,[30],136 POC
same,Avg POC,[31],111.5 POC
same,Avg POC,[32],132.5 POC
same,Avg POC,[33],117.5 POC
same,Avg POC,[34],112.5 POC
same,Avg POC,[35],118 POC
same,Avg POC,[36],102 POC
same,Avg POC,[37],97.5 POC
same,Avg POC,[38],104 POC
same,Avg POC,[39],116.5 POC
same,Avg POC,[40],97.5 POC
same,Avg POC,[41],92.5 POC
